Assay results taken from patent US20250262192A1, “PROGNOSTIC PATHWAYS FOR HIGH RISK SEPSIS PATIENTS” (KONINKLIJKE PHILIPS N.V., priority 2021, published 2025).
Several values for one entry are separate records, joined by “and”; a condition that tells them apart may be missing. Identical values can stand only once.

Legend:
[1] = system: AR cellular signaling pathway; assay: THP-1 cells cultured 24 hrs with LPS, then DHT or AR inhibitor (FIG. 35, Table 7); pathway analysis; format: cell-based
Experimental: (§1) FIG. 35 Schematic overview of AR inhibitor experiment. Depicts the experimental setup to determine if AR inhibitors can be used to mitigate the effect of LPS on monocytes (THP-1 cells). […] In a parallel experiment, THP-1 cells are first cultured for 24 hours with LPS, after which the medium is changed and the cells are cultured with one of ARCC-4, ARD-266, A-458 and bicalutamide.
(§2) FIG. 35 describes the experimental set-up used. […] In a parallel experiment, THP-1 cells are first cultured for 24 hours with LPS, after which the medium is changed and the cells are cultured with one of ARCC-4, ARD-266, A-458 and bicalutamide.
All experimental conditions were subjected to cellular signaling pathways analysis.

TGFbeta pathway [2] = assay: PBMCs of sepsis patients treated in vitro 24 hours with inhibitors, pathway activity score; format: cell-based, human; parameters: scale not given here; conditions: EXP 2, individual patient samples, Resatorvid 10 uM, D4-abiraterone 10 uM, A-485 100 nM, Galunisertib 10 uM
Experimental: (§3) PBMC samples from healthy volunteers and sepsis patients were obtained via Tissue solutions. Briefly, cryopreserved PBMCs were first washed with washing buffer (PBS/1% BSA/2 mM EDTA), centrifuged and pellet resuspended in culture medium (RPM11640 without phenol red+8.5% charcoal stripped FBS+1% Glx+1% p/s). 0.5·10^5-1·10^6 cells were seeded per well in 24 wells plate and rested for 1 hour before treatment experiment. 10 PBMC samples from healthy donors were used to; (1) measure the baseline pathway levels, (2) activate with LPS
(§4) Sepsis treatment model: PBMC derived from sepsis patients (n=20) were treated 24 hours with compounds, DMSO or combination of compounds. (PBMC from healthy and sepsis patients are originating from the same hospital to minimize bias in sample prep). After stimulation cells were harvested and RNA was extracted using the RNeasy mini kit (Qiagen, 74104). qPCR was performed using the Philips Research OncoSignal platform.
(§5) In total 18 PBMCs sepsis samples were treated for 24 hours with selected inhibitors (and combinations), 6 patient samples per experiment.

AR pathway [3] = assay: as above; format: cell-based, human; parameters: AR Pathway activity scores of sepsis PBMC patients: scale not given here; conditions: EXP 2, individual patient samples, Resatorvid 10 uM, D4-abiraterone 10 uM, A-485 100 nM, Galunisertib 10 uM
Experimental: as §3, §4, §5

[4] = system: TGFbeta cellular signaling pathway; assay: THP-1 cells cultured 24 hrs with LPS, then DHT or AR inhibitor (FIG. 35, Table 7); pathway analysis; format: cell-based
Experimental: as §1, §2
As expected the remaining AR inhibitors were not able to mitigate the effect of LPS on TGFbeta cellular signaling pathway activity.
AR and TGFbeta pathways are functional in monocytic cells (Table 7).

AR pathway [5] = assay: THP-1 cell line stimulated with LPS or DHT and inhibited with Bicalutamide or Enzalutamide (Table 9A); format: cell-based
Experimental: (§6) LPS is considered the main mediator of the sepsis symptoms. An in vitro experiment was designed where monocytes were stimulated with LPS and subsequently treated with a variety of inhibitors. […] 26 Aug.
(§7) After stimulation cells were harvested and RNA was extracted using the RNeasy mini kit (Qiagen, 74104). qPCR-based STP activity scores were calculated using the Philips Research OncoSignal platform (www.philips.com/oncosignal), as described herein.

TGFBeta pathway [6] = assay: as above; format: cell-based
Experimental: as §6, §7

[7] = system: AR cellular signaling pathway; assay: THP-1 sepsis prevention model, qPCR-based STP activity score; format: cell-based
[8] = system: TGFbeta cellular signaling pathway; assay: as above; format: cell-based
AR pathway [9] = assay: MOLT-4 lymphoid cell line stimulated with LPS or DHT and inhibited with Bicalutamide or Enzalutamide (Table 9B); format: cell-based; conditions: stimulated 5 hours and subsequently inhibited
Experimental: (§8) MOLT-4 (ATCC CRL-1582) were cultured in RPMI1640 media, supplemented with 10% FBS, 1% glutamax and 1% pen strep at 37° C. 5% CO2.
as §7

TGFBeta pathway [10] = assay: as above; format: cell-based
Experimental: as §8, §7

[11] = system: ER cellular signaling pathway; format: cell-based
Experimental: as §1, §2

[12] = system: HH (Hedgehog) cellular signaling pathway; format: cell-based
Experimental: as §1, §2

[13] = THP-1, 24 hours LPS, medium changed, then inhibitor
[14] = 24 hrs 25 uM Bicalutamide or DMSO, then 24 hrs DHT
[15] = DHT (25 nM) alone or + Bicalutamide (5 uM) or Enzalutamide (5 uM)
[16] = THP-1, DHT (25 nM) alone or + Bicalutamide (5 uM) or Enzalutamide (5 uM), stimulated 5 hours and subsequently inhibited
[17] = THP-1, LPS (50 ng/mL) alone or + Bicalutamide (5 uM) or Enzalutamide (5 uM), stimulated 5 hours and subsequently inhibited
[18] = 24 hrs 25 uM Bicalutamide or DMSO, then 24 hrs LPS
[19] = 24 hrs 25 uM Bicalutamide, then 24 hrs PBS

CNC(=O)Nc1ccc2c(c1)CC[C@@]21OC(=O)N(CC(=O)N(Cc2ccc(F)cc2)[C@@H](C)C(F)(F)F)C1=O [A-485]
LPS induced AR activity after addition of inhibitor (FIG. 36) [1, 13]: reduction of AR activity | TGFbeta Pathway activity scores of sepsis PBMC patients (TGFbeta pathway [2]): 28 and 33 and 35 | AR Pathway activity scores of sepsis PBMC patients (AR pathway [3]): 24 and 27 and 25 | LPS induced TGFbeta activity after addition of inhibitor (FIG. 39) [4, 13]: reduction of LPS induced TGFbeta activity

TGFbeta: original ligand for the TGFbeta STP added to monocytic cells
TGFbeta pathway activity, ligand stimulation ([4]; monocytic cells (THP-1)): induced activity

C[C@]12CCC(=O)C[C@@H]1CC[C@@H]1[C@@H]2CC[C@]2(C)[C@@H](O)CC[C@@H]12 [DHT, dihydrotestosterone]
AR STP activity (AR pathway [5]): 8.7 normalized scores | TGFbeta STP activity (TGFBeta pathway [6]): 12.9 normalized scores | Average AR STP score [7, 14]: 6.13 normalized scores | Average TGFbeta STP score [8, 14]: 1.27 normalized scores | AR cellular signaling pathway activity, effect of stimulus (FIG. 36) [1]: increase | AR STP activity (AR pathway [9]; [15]): 7.5 normalized scores | TGFbeta STP activity (TGFBeta pathway [10]): 14.1 normalized scores | ER cellular signaling pathway activity (FIG. 37) [11]: not substantially affected | HH cellular signaling pathway activity (FIG. 38) [12]: not substantially affected | TGFbeta signaling activity, effect of stimulus (FIG. 39) [4]: did not increase

C[C@]12CC[C@H]3[C@@H](CCC4=CC(=O)CC[C@@]43C)[C@@H]1CC[C@@H]2O [Testosterone]
AR pathway activity, ligand stimulation ([1]; THP-1 cells): induced activity

CC(O)(CS(=O)(=O)c1ccc(F)cc1)C(=O)Nc1ccc(C#N)c(C(F)(F)F)c1 (stereo not drawn) [Bicalutamide]
AR STP activity (AR pathway [5]; [16]): 6.7 normalized scores | AR STP activity (AR pathway [5]; [17]): 20.2 normalized scores | TGFbeta STP activity (TGFBeta pathway [6]; [16]): 15.6 normalized scores | TGFbeta STP activity (TGFBeta pathway [6]; [17]): 34.6 normalized scores | Average AR STP score [7, 14]: 3.17 normalized scores | Average AR STP score [7, 18]: 12.93 normalized scores | Average AR STP score [7, 19]: 2.63 normalized scores | Average TGFbeta STP score [8, 14]: 1.04 normalized scores | Average TGFbeta STP score [8, 18]: 9.78 normalized scores | Average TGFbeta STP score [8, 19]: 1.25 normalized scores | AR STP activity (AR pathway [9]; [15]): 7.4 normalized scores | AR STP activity (AR pathway [9]; LPS (50 ng/mL) alone or + Bicalutamide (5 uM) or Enzalutamide (5 uM)): 7.2 normalized scores | TGFbeta STP activity (TGFBeta pathway [10]; MOLT-4, DHT (25 nM) alone or + Bicalutamide (5 uM) or Enzalutamide (5 uM), stimulated 5 hours and subsequently inhibited): 13.9 normalized scores | TGFbeta STP activity (TGFBeta pathway [10]; MOLT-4, LPS (50 ng/mL) alone or + Bicalutamide (5 uM) or Enzalutamide (5 uM), stimulated 5 hours and subsequently inhibited): 14.1 normalized scores
